Target: 5-hydroxytryptamine receptor 2A (Rattus norvegicus, UniProt P14842)
Sequence (P14842 whole entry): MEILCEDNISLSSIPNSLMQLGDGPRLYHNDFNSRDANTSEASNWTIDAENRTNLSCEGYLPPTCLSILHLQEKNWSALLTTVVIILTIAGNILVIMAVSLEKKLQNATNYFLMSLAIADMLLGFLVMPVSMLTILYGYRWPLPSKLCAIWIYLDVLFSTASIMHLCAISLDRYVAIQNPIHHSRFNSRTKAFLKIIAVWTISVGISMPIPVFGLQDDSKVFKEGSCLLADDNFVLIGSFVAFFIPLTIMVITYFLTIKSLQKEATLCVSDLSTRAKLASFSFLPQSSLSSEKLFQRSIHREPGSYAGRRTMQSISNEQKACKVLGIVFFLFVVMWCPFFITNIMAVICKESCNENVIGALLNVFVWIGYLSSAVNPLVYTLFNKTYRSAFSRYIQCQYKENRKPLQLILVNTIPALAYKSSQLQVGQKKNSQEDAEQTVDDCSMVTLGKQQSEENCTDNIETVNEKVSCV

| SMILES | Ki [nM] |
| --- | --- |
| CN1CCc2cc(Cl)c(O)cc2[C@H]2c3ccccc3CC[C@@H]21 | 321 |
| CN1CCc2cc(Cl)c(O)cc2[C@@H](c2ccccc2)C1 [SCH 23390,R(+)] | 13.1 |
